Experimental data as given in the CheMixHub viscosity set.
Values joined by “and” are separate entries in the source; they are usually repeats but may differ in a detail not shown here. Equal entries are not always repeated. ± gives the uncertainty stated by the source.

`CC=Cc1ccc2c(c1)OCO2` showed a viscosity (298.15 K, 101 kPa) of 3.981 ± 0.048 mPa·s.
Work on `CCC(C)N` (stereo unspecified) yielded a viscosity (298.15 K, 101.33 kPa) of 0.4176 ± 0.0038 mPa·s, a viscosity (303.15 K, 101 kPa) of 0.4024 ± 0.0036 mPa·s and a viscosity (303.15 K, 101.33 kPa) of 0.3884 ± 0.0036 mPa·s. The viscosity (308.15 K, 101 kPa) was 0.3996 ± 0.041 mPa·s and 0.3996 ± 0.0055 mPa·s, the viscosity (308.15 K, 101.33 kPa) was 0.3659 ± 0.0035 mPa·s and the viscosity (313.15 K, 101.33 kPa) was 0.3465 ± 0.0033 mPa·s. It also gave a viscosity (318.15 K, 101.33 kPa) of 0.3274 ± 0.0032 mPa·s and a viscosity (323.15 K, 101.33 kPa) of 0.3104 ± 0.0031 mPa·s.
`CCCC(=O)[O-].CC[NH+](CC)CCO` gave a viscosity (293.15 K, 101 kPa) of 71.57 ± 1.6 mPa·s, a viscosity (298.15 K, 101 kPa) of 53.96 ± 1.1 mPa·s and a viscosity (303.15 K, 101 kPa) of 41.42 ± 0.89 mPa·s. For the same compound, the viscosity (308.15 K, 101 kPa) was 32.34 ± 0.69 mPa·s, the viscosity (313.15 K, 101 kPa) was 25.64 ± 0.55 mPa·s and the viscosity (318.15 K, 101 kPa) was 20.63 ± 0.44 mPa·s. For the same compound, the viscosity (323.15 K, 101 kPa) was 16.82 ± 0.36 mPa·s.
For `CCCCCC(=O)O`, the viscosity (298.15 K, 101 kPa) was 2.814 ± 0.073 mPa·s and the viscosity (323.15 K, 101.33 kPa) was 1.762 ± 0.022 mPa·s.
For `CCCC[n+]1ccccc1.F[B-](F)(F)F`, the viscosity (293.15 K, 101.3 kPa) was 223 ± 45 mPa·s and 223.1 ± 13 mPa·s, the viscosity (298.15 K, 101.3 kPa) was 163 ± 33 mPa·s and 163.3 ± 7.9 mPa·s and the viscosity (303.15 K, 101.3 kPa) was 121 ± 24 mPa·s and 123 ± 5 mPa·s. The viscosity (308.15 K, 101.3 kPa) was 92.8 ± 19 mPa·s and 94.21 ± 3.3 mPa·s, the viscosity (313.15 K, 101.3 kPa) was 72.3 ± 14 mPa·s and 70.29 ± 2.1 mPa·s and the viscosity (318.15 K, 101.3 kPa) was 57.4 ± 12 mPa·s and 55.81 ± 1.6 mPa·s. For the same compound, the viscosity (323.15 K, 101.3 kPa) was 46.3 ± 9.3 mPa·s and 45.12 ± 1.4 mPa·s.
In the case of `CCOCC`, the viscosity (293.15 K, 101 kPa) is reported as 0.239 ± 0.006 mPa·s, the viscosity (293.15 K, 101.33 kPa) is reported as 0.25 ± 0.007 mPa·s and the viscosity (298.15 K, 101.33 kPa) is reported as 0.225 ± 0.0016 mPa·s. For the same compound, the viscosity (303.15 K, 101 kPa) was 0.212 ± 0.006 mPa·s and the viscosity (303.16 K, 101 kPa) was 0.2193 ± 0.041 mPa·s and 0.2193 ± 0.081 mPa·s.
For `CCS`, the viscosity (298.15 K, 101 kPa) was 0.2091 ± 0.0019 mPa·s.
Compound `O=C(OCc1ccccc1)c1ccccc1O` has a viscosity (303.15 K, 101 kPa) of 6.722 ± 0.075 mPa·s.
With `O=C1CCCCC1` the viscosity (293.15 K, 101.3 kPa) was 2.546 ± 0.029 mPa·s, the viscosity (293.15 K, 101.33 kPa) was 2.315 ± 1 mPa·s and the viscosity (298.15 K, 101.3 kPa) was 1.963 ± 0.025 mPa·s. For the same compound, the viscosity (303.15 K, 101.3 kPa) was 1.768 ± 0.022 mPa·s and 1.915 ± 0.022 mPa·s, the viscosity (308.15 K, 101 kPa) was 1.631 ± 0.021 mPa·s and 1.632 ± 0.038 mPa·s and 1.632 ± 0.077 mPa·s and the viscosity (308.15 K, 101.3 kPa) was 1.602 ± 0.02 mPa·s and 1.585 ± 0.025 mPa·s. For the same compound, the viscosity (313.15 K, 100 kPa) was 1.481 ± 0.1 mPa·s, the viscosity (313.15 K, 101 kPa) was 1.476 ± 0.016 mPa·s and 1.476 ± 0.019 mPa·s and 1.481 ± 0.07 mPa·s and the viscosity (318.15 K, 100 kPa) was 1.285 ± 0.1 mPa·s. The viscosity (318.15 K, 101 kPa) was 1.285 ± 0.062 mPa·s and 1.373 ± 0.032 mPa·s and 1.373 ± 0.066 mPa·s and the viscosity (318.15 K, 101.33 kPa) was 1.311 ± 0.017 mPa·s.
`OCCOc1ccccc1` gave a viscosity (303.15 K, 101 kPa) of 12.86 ± 0.33 mPa·s, a viscosity (313.15 K, 101 kPa) of 9.235 ± 0.25 mPa·s and a viscosity (323.15 K, 101 kPa) of 5.927 ± 0.18 mPa·s.
